# Results reported in US20250320184A1 (SIRONAX LTD., priority 2022, published 2025).
# Target: T1, SARM1 (50-724) (Homo sapiens, UniProt Q6SZW1)
# T1 sequence (Q6SZW1 50-724): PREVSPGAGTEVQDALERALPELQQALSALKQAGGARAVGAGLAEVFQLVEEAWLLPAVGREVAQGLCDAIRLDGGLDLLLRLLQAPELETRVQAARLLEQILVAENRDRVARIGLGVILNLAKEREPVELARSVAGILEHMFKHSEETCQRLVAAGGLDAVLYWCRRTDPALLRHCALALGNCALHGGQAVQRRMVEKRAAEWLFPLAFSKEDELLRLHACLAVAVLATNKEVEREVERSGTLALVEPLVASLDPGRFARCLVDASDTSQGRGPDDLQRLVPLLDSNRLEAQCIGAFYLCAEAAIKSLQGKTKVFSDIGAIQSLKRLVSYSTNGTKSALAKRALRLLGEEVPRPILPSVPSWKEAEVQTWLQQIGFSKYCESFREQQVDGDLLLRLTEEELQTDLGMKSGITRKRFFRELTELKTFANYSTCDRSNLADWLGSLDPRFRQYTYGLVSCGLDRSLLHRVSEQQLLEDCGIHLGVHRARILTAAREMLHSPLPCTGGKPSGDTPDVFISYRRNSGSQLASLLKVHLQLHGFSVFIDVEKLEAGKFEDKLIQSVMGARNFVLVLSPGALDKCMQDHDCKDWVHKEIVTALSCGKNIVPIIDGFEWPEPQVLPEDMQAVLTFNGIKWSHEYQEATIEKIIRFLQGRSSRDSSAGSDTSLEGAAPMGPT
# Experiment: biochemical
# Details: not given
row,IC50,Compound
1,100 to 500 nM,"CC1(C)Cc2ccc(NS(=O)(=O)c3cccc(Cl)c3Cl)cc2NC1=O [Compound 268, 2,3-dichloro-N-(3,3-dimethyl-2-oxo-1,4-dihydroquinolin-7-yl)benzenesulfonamide]"
2,< 100 nM,"CC(Nc1ccc2nc[nH]c(=O)c2c1)c1cccc(Cl)c1Cl (racemic) [Example 128, 6-((1-(2,3-dichlorophenyl)ethyl)amino)quinazolin-4(3H)-one]"
3,< 100 nM,"CCn1nc(C(C)Nc2ccc3cc[nH]c(=O)c3c2)c(Cl)c1C (racemic) [Compound 247, 7-((1-(4-chloro-1-ethyl-5-methyl-1H-pyrazol-3-yl)ethyl)amino)isoquinolin-1(2H)-one]"
4,< 100 nM,"CN1C(=O)C(C)(C)c2ccc(NS(=O)(=O)c3cccc(Cl)c3Cl)cc21 [Compound 211, 2,3-dichloro-N-(1,3,3-trimethyl-2-oxoindolin-6-yl)benzenesulfonamide]"

# Target: T1, SARM1 (50-724)
# Experiment: SARM1 (50-724) enzymatic assay
# Details: SARM1 inhibitory activity; purified SARM1 (50-724) 2 nM, 200 μM NMN activator, 100 μM NAD+ substrate, LC-MS/MS
# Procedure: An enzymatic assay was performed in a 384-well plate using Dulbecco's phosphate-buffered saline (PBS) as the reaction buffer. […] The reaction was initiated by adding a mixture of 200 μM nicotinamide mononucleotide (NMN) as activator and 100 μM NAD^+ as substrate. After 1 h of incubation at room temperature, the reaction was terminated with 10 times volume of 70% acetonitrile, then centrifuged at 3800 rpm for 10 min.
row,IC50,Compound
1,< 100 nM,"CC(Nc1ccc2c(c1)C(=O)NCC2)c1cccc(Cl)c1Cl (single isomer, unassigned) [Example 112]"
2,< 100 nM,"CC(Nc1ccc2cc[nH]c(=O)c2c1)c1nccc(Cl)c1Cl (racemic) [Example 194, 7-((1-(3,4-dichloropyridin-2-yl)ethyl)amino)isoquinolin-1(2H)-one]"
